Assay results from article PMC8609367 (mBio, 2021).
Values after ≈ are worked out from the molar mass of the structure shown. Values joined by “and” are separate entries in the source; they are usually repeats but may differ in a detail not shown here. Identical values can stand only once.

Columns and labels:
[1] = system: cryptococcal model of invasive fungal infection; set-up: method as in PMID 31537789; conditions: murine model; cited from earlier work
Cryptococcus neoformans = system: Cryptococcus neoformans; set-up: method as in PMID 31537789; conditions: C. neoformans; cited from earlier work
[2] = Solubility noted in ITC set-up; type: physicochemical; conditions: restricting the usable concentration in ITC
Experimental: (§1) After the size exclusion purification, the proteins were concentrated to ∼2 mg/ml using a 3,000-MWCO Amicon concentrator. Proteins were exhaustively dialyzed at 4°C in the isothermal titration calorimetry (ITC) buffer (50 mM sodium phosphate, 50 mM sodium chloride, pH 7.0). Experiments were performed using a VP-ITC instrument (MicroCal Inc., Northampton, MA) at 25°C. All solutions were degassed under vacuum at 25°C for 15 min immediately before use. […] was loaded into the syringe at a concentration of 25 μM and titrated in by a first injection of 2 μl followed by 22 injections of 6 μl. Following each injection, the cell was equilibrated for 3 min. […] The proteins were loaded in the cell at a concentration of 10 μM with constant stirring at 307 rpm (25°C). […] The enthalpy of binding (ΔH, kilocalories/mole) was determined by integration of the injection peaks minus the controls for the heat of dilution (equivalent experiments without the ligand and without the protein). The MicroCal Origin software (OriginLab Corp., Northampton, MA) was used for a variety of binding models.

AfFKBP12 = target: T1, AfFKBP12 (Aspergillus fumigatus, UniProt Q4WLV6); test: biochemical; type: binding; conditions: for TΔS / ΔG° / ΔH / Stoichiometry / Kd: ITC, 25°C, average from triplicates; for Stoichiometry: ligand-FKBP12
T1 construct: His6 (thrombin-cleavable) (N, cleaved yes); made in house; host or cells: E. coli BL21(DE3)
T1 sequence (Q4WLV6 1-112): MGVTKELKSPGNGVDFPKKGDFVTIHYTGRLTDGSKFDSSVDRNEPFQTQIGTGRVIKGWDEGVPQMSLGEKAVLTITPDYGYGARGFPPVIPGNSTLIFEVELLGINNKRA
Experimental: (§2) The lower panel represents the integrated heat changes upon binding (kilocalories/mole) corrected for the protein and ligand heat of dilution. Fitting was performed using the MicroCal Origin software. Download FIG S2, TIF file, 0.9 MB.
as §1

McFKBP12 = target: T2, McFKBP12 (Mucor circinelloides, UniProt U3N5X4); test: ITC binding to M. circinelloides FKBP12; conditions: for Kd / Stoichiometry / TΔS / ΔG° / ΔH: ITC, 25°C, average from triplicates
T2 sequence (U3N5X4 1-108): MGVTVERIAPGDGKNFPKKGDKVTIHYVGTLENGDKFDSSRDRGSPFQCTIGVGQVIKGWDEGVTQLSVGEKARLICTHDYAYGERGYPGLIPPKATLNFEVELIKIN
Experimental: as §2, §1

[3] = system: T helper cell-dependent germinal center B cell response; set-up: method as in PMID 31537789; conditions: cited from earlier work
hFKBP12 = target: T3, hFKBP12 (Homo sapiens, UniProt P62942); test: ITC binding to human FKBP12
T3 construct: His6 (thrombin-cleavable) (N, cleaved yes); made in house; host or cells: E. coli BL21(DE3)
Experimental: as §2, §1

[4] = system: interleukin-2 (IL-2) production in primary murine CD4+ T cells; set-up: method as in PMID 31537789; conditions: reduction of IL-2 production in primary murine CD4+ T cells; cited from earlier work
Candida albicans = system: Candida albicans; set-up: method as in PMID 31537789; conditions: in vitro; cited from earlier work
[5] = system: A. fumigatus strains expressing McFKBP12 or McFKBP12-Y88F; test: Growth assay of A. fumigatus strains expressing FKBP12 variants in presence of FK506; type: cell-based, Aspergillus fumigatus
Experimental: A. fumigatus wild-type strain akuB^KU80 was used for growth and recombinant strain generation experiments. A. fumigatus wild-type or recombinant strains were cultured on glucose minimal medium (GMM) or RPMI liquid medium at 37°C for 24- or 48-h- periods. […] All growth experiments were repeated as technical triplicates, each also as biological triplicates.

FKBP12 = system: FKBP12; set-up: method as in PMID 1380976; conditions: cited from earlier work
[6] = set-up: method as in PMID 1380976; conditions: cited from earlier work
[7] = set-up: method as in PMID 1380976; conditions: cited from earlier work; remark: listed apart in the source
[8] = ITC, 25°C, average from triplicates

T3 sequence (P62942 whole entry): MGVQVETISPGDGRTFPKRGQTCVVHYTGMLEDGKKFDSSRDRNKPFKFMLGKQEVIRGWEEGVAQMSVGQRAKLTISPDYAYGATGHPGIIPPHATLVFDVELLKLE

Compound	TΔS (AfFKBP12) [kcal/mol]	ΔG° (AfFKBP12) [kcal/mol]	ΔH (AfFKBP12) [kcal/mol]	Stoichiometry (AfFKBP12)	Kd (AfFKBP12) [nM]	Kd (McFKBP12)	Stoichiometry (McFKBP12)	TΔS (McFKBP12) [kcal/mol]	ΔG° (McFKBP12) [kcal/mol]	ΔH (McFKBP12) [kcal/mol]	Stoichiometry (hFKBP12; [8])	TΔS (hFKBP12; [8]) [kcal/mol]	ΔG° (hFKBP12; [8]) [kcal/mol]	ΔH (hFKBP12; [8]) [kcal/mol]	further results
C=CCC1C=C(C)CC(C)CC(OC)C2OC(O)(C(=O)C(=O)N3CCCCC3C(=O)OC(C(C)=CC3CCC(O)C(OC)C3)C(C)C(O)CC1=NNC(C)=O)C(C)CC2OC (stereo not drawn) [APX879]	7.2 ± 1.0	-8.0 ± 1.0	-1.2 ± 0.4	1.96 ± 0.13	462	~120 nM and 126 nM	0.93 ± 0.17	7.4 ± 0.2	-9.4 ± 0.2	-2.0 ± 0.1	1.41 ± 0.03	7.4 ± 0.8	-9.2 ± 0.9	-1.8 ± 0.4	Efficacy in cryptococcal model [1]: confirmed efficacy; Reduction in antifungal efficacy compared to FK506 (Cryptococcus neoformans): 17 fold; Solubility [2]: low solubility; Reduction in affinity compared to FK506 (AfFKBP12; ITC KD, APX879 versus FK506): 100 fold; Reduction in affinity compared to FK506 (McFKBP12; ITC KD, APX879 versus FK506): ~40 fold; Ability to stimulate T helper cell-dependent germinal center B cell response ([3]; in comparison to FK506 treatment, animal models): significant reduction; Immunosuppressive activity in vivo ([3]; murine model): reduced immunosuppressive activity; Reduction in affinity compared to FK506 (hFKBP12; ITC KD, APX879 versus FK506): ~40 fold; Kd (hFKBP12; [8]): ~120 nM and 119 nM; Reduced immunosuppressive activity compared to FK506 [4]: 71 fold; MIC (Candida albicans): 8 µg/mL (≈ 9.3 µM)
C=CC[C@@H]1/C=C(\C)C[C@H](C)C[C@H](OC)[C@H]2O[C@@](O)(C(=O)C(=O)N3CCCC[C@H]3C(=O)O[C@H](/C(C)=C/[C@@H]3CC[C@@H](O)[C@H](OC)C3)[C@H](C)[C@@H](O)CC1=O)[C@H](C)C[C@@H]2OC [FK506, reference compound]	4.6 ± 0.3	-11.3 ± 0.4	-6.7 ± 0.3	2.02 ± 0.06	4.7 ± 0.6	3 ± 0.7 nM	1.06 ± 0.06	1.9 ± 0.2	-11.7 ± 0.2	-9.8 ± 0.1	1.09 ± 0.03	-3.3 ± 1.2	-12.0 ± 1.6	-15.0 ± 1.1	Toxicity in animal models ([3]; animal models): acute toxicity; FK506 sensitivity of A. fumigatus strain expressing McFKBP12 ([5]; Affkbp12 locus replaced with Mcfkbp12, increasing concentrations of FK506): does not restore A. fumigatus FK506 sensitivity; FK506 sensitivity of A. fumigatus strain expressing McFKBP12-Y88F ([5]; McFKBP12-Y88F mutant): restoration of FK506 sensitivity
CC[C@@H]1/C=C(\C)[C@@H](O)[C@H](C)C[C@H](OC)[C@H]2O[C@@](O)(C(=O)C(=O)N3CCCC[C@H]3C(=O)O[C@H](/C(C)=C/[C@@H]3CC[C@@H](O)[C@H](OC)C3)[C@H](C)[C@@H](O)CC1=O)[C@H](C)C[C@@H]2OC [L-685,818]															Binding to FKBP12 (FKBP12): still binds to FKBP12; Immunosuppressive activity [6]: nonimmunosuppressive; Antifungal activity [7]: retains antifungal activity
